Test [1] deals with T1, human CCR2b receptor (Homo sapiens, UniProt P41597).
T1 sequence (P41597 1-360 isoform P41597-2): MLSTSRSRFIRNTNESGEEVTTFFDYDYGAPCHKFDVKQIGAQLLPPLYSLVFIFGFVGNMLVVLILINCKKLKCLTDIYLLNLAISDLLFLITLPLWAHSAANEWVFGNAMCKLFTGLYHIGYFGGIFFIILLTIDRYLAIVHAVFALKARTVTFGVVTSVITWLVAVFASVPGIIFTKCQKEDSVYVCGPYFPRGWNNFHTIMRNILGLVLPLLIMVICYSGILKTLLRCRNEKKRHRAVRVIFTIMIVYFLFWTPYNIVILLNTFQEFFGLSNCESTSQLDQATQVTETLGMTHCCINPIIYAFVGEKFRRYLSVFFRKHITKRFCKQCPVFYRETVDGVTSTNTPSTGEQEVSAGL
Nature of the test: Inhibitory activity on cells expressing the human CCR2b receptor. In kind it is cell-based. The method, then:
The inhibitory activity of the compounds according to the invention on cells expressing the human CCR2b receptor was measured.

The subject of test [2] is human THP-1 monocytes. Description: Inhibition of chemotaxis on human THP-1 monocytes. In kind it is cell-based. The method, then: The inhibition of chemotaxis was also measured on human THP-1 monocytes (sold by DSMZ—Germany) using a technique adapted from that described by A. Albini et al., Cancer Res., 1987, 47, 3239-3245. Under these conditions, hMCP-1 has an IC50 of 6 nM.

pIC50: −log10 of the molar value.

By pIC50 is commonly meant −log10 of the IC50, conventionally taken in molar units.

`CCCOc1ccc(OC)c(-c2csc(NC(=O)C3CCCN(C(=O)c4cc([N+](=O)[O-])cc([N+](=O)[O-])c4)C3)n2)c1` (stereo not drawn) [Compound 1] had a pIC50 in test [1] of 6.54.
On the same count and under the same terms, with `COc1ccc(C2CCCCC2)cc1-c1csc(NC(=O)C2CCCN(C(=O)c3cccc(C#N)c3)C2)n1` (stereo not drawn) [Compound 20] the figure was 7.60.
As to `COc1ccc(C2CCCCC2)cc1-c1csc(NC(=O)C2CCCN(C(=O)c3ccoc3C)C2)n1` (stereo not drawn) [Compound 31], the negative-log IC50 (pIC50) in test [1] is 7.36.
Regarding `COc1ccc(C2CCCCC2)cc1-c1csc(NC(=O)C2CCCN(C(=O)c3ccncn3)C2)n1` (stereo not drawn) [Compound 107, 1-(pyrimidine-4-carbonyl)piperidine-3-carboxylic acid [4-(5-cyclohexyl-2-methoxyphenyl)thiazol-2-yl]amide], the pIC50 in test [1] is 8.30. This pIC50 lies 0.94 log units higher than the previous one.
For the compound “hMCP-1: "hMCP-1 (human monocyte chemotactic protein)", "belongs to the group or CC chemokines and which is a natural agonist of the CCR2b receptor"”, the pIC50 in test [2] was 8.22; in test [1], 9.24.

These data come from patent US7598392B2, “2-amido-4-phenylthiazole derivatives, the preparation and the therapeutic use thereof” (sanofi-aventis, priority 2004, dated 2009).
